The text below walks through data of patent publication US11661398B2, “Cellular transport system for transferring a sulfonic acid construct carrying a cargo into the cytoplasm of a cell” (Scientist of Fortune, S.A., priority 2017, dated 2023).

Entries after “also recorded” stand apart in the source; their conditions may differ.

The subject of one test is BW25113 ΔleuB (TK080). Put plainly: Growth on different sulfur sources. The test is classed as cell-based, E. coli. As to conditions: 1 mM sulfur source, minimal medium, 0.5% glucose, 0.4 mM leucine. The method, then:
FIG. 21: Growth of E. coli on sulfonates. Strains TK080 (a; BW25113 ΔleuB) and TK082 (b; BW25113 ΔleuB ΔssuEADCB ΔtauD) were grown in MS minimal medium supplemented with 0.5% glucose, 0.4 mM L-leucine, 1 mM MgCl2 and 1 mM of a sulfur source. TK080 was able to use the majority of the tested sulfur sources with a similar efficiency as sulfate. […] Dots represent the average of three independent measurements with standard deviations shown as error bars.
(§1) For the experiments relating to the sulfonate based synthetic transport system, unless stated otherwise, growth experiments in selective medium were carried out in sulfur free MS minimal medium (4 mM citric acid, 1 mM MgCl2, 20 mM NH4Cl, 50 mM KH2PO4 and 1×NTA mix (10 μM nitrilotriacetic acid, 3 μM CaCl2, 3 μM FeCl3, 1 μM MnCl2, 0.3 μM ZnCl2, 0.3 μM H3B3, 0.3 μM CrC3, 0.3 μM COCl2, 0.3 μM CuCl2, 0.3 μM Ni2C, 0.3 μM Na2MoO4, 0.3 μM Na2SeO3)) supplemented with 0.5% glucose. MgSO4 (1 mM), MgCl2 (1 mM), L-leucine (0.4 mM), IPTG (0.5 mM), aTc (100 ng mL-1), nicotinic acid (various concentrations), 3-picolylamine (various concentrations) and sulfonates (various concentrations) as indicated in the text. […] Synthesis schemes for sulfobutanoyl-p-nitroanilide and other sulfonates are given below.
The sulfonate transporters SsuABC and TauABC transport a wide variety of sulfonate compounds (Eichhorn et al., 2000) and can thus be exploited for the present synthetic transport system. As such, the uptake and utilization of sulfobutanoyl-L-leucine was assessed. The leucine auxotrophic strain BW25113 ΔleuB was tested for growth in minimal medium supplemented with 0.5% glucose, 0.4 mM leucine, 0.4 mM isoleucine and 1 mM of a sulfur-containing compound as the sole sulfur source.

In another test the test system is BW25113 ΔleuB. Put plainly: Intracellular release of leucine from sulfobutanoyl-L-leucine, growth on plates. In kind it is cell-based, E. coli. As to conditions: 2 mM compound, 0.5 mM taurine. The method, then:
as §1
It was then tested if sulfobutanoyl-L-leucine can also be hydrolyzed intracellularly by GGT*. Strains BW25113 ΔleuB or BW25113 ΔleuB ΔssuD were transformed either with the empty vector pACT3 or the expression plasmids pACT3/EcGGT_ΔN24_D433N and pACT3/PnGGT_ΔN24_D405N. […] Taurine is taken up exclusively via TauABC and solely desulfonated by TauD. Addition of an excess of taurine should therefore not lead to competition with sulfobutanoyl-L-leucine for the SsuABC transporter and prevent TauD from using sulfobutanoyl-L-leucine as substrate, ensuring that the majority of sulfobutanoyl-L-leucine is hydroluzed by GGT*.

The test system of the next test is TK082[pSsuABC]. Put plainly: Growth of leucine auxotrophic strain in liquid medium. In kind it is cell-based, E. coli. As to conditions: liquid MS minimal medium, 0.25 mM compound, pACT3 versus pPnGGT*.
A further test has as its system PnGGT* P505T. Put plainly: Sulfobutanoyl-L-leucine hydrolysis kinetics coupled to branched-chain amino acid kit. As to conditions: 50 mM Tris/HCl (pH 7.0). The test is classed as biochemical, Pseudomonas nitroreducens. How it is done: (§2) FIG. 32. […] Due to the unknown composition of the kit, absolute quantification of leucine was not possible and the results relating to reaction rates are plotted as changes in absorbance over time. […] (b) Kinetics of PnGGT* P505T were determined with the same substrate concentrations and buffer as for PnGGT*. […] Fitting of the kinetic data was performed with SigmaPlot v.12.2. Dots represent the average of three independent measurements with standard deviations shown as error bars.
(§3) For that, 50 μL of the BCAA reaction mix containing 46 μL BCAA assay buffer, 2 μL BCAA enzyme mix and 2 μL WST substrate mix were pre-incubated with 35 μL BCAA assay buffer and 5 μL purified PnGGT* (final concentration approximately 0.05 mg mL-1) at 37° C. […] The reaction rate of PnGGT* variants was determined as the specific difference in absorption over time (ΔA (450 nm) per minute per mg of purified protein).

The next test concerns PnGGT* D385Y. The test is described as above. In kind it is biochemical, Pseudomonas nitroreducens. The conditions noted are these: 50 mM Tris/HCl (pH 7.0), 10-1000 μM substrate. The method, then:
as §2, §3

The target in the next test is T1, PnGGT* (Pseudomonas nitroreducens, UniProt E0D5C2, D405N).
T1 sequence (E0D5C2 25-556 D405N limits assumed): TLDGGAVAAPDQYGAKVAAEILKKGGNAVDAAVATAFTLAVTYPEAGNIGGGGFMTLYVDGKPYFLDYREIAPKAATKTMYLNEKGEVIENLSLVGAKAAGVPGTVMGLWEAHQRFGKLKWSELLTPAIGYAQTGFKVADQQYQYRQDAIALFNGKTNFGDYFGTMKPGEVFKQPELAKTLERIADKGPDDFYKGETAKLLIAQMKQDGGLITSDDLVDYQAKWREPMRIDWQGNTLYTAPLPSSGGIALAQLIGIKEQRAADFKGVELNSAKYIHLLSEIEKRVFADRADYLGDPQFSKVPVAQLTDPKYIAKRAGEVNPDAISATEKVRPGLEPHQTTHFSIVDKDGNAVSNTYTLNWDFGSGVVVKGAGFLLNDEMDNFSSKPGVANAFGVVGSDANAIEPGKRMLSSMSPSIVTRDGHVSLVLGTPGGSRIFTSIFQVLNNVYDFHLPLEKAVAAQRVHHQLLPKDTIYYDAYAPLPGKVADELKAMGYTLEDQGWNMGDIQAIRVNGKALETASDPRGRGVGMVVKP
Described as above. In kind it is biochemical. As to conditions: 50 mM Tris/HCl (pH 7.0). The method, then: as §2, §3

Turning to `CC(C)C[C@H](NC(=O)CCCS(=O)(=O)O)C(=O)O` [sulfobutanoyl-L-leucine], the “growth with compound as sole sulfur source” value with BW25113 ΔleuB (TK080) is recorded as “comparable to growth on other sulfonates; also recorded: comparable efficiencies”. Besides, the “growth with compound as leucine source” value is reported as “slower growth” with BW25113 ΔleuB (expressing EcGGT ΔN24 D433N), “grows best” in the test on BW25113 ΔleuB (expressing PnGGT ΔN24 D405N) and “weak growth” with BW25113 ΔleuB (pACT3 empty vector control). The “growth with compound as sole leucine source” value in the test with TK082[pSsuABC] is reported as “only grew when cells were synthesizing PnGGT*”. Besides, the “increase in Vmax in comparison to PnGGT*” value in the test with PnGGT* P505T stood at 27%. The “reduction in KM in comparison to PnGGT*” value with PnGGT* P505T amounted to 46%. Moreover, in the test with PnGGT* D385Y, the “improvement of Vmax over PnGGT*” value worked out at 1.55 fold. Further, the “K value relative to K value with sulfobutanoyl-p-nitroanilide” value at PnGGT* was “approximately three times higher”.
